From US11446299B2, “Carbazole EHop-016 derivatives as anticancer and anti-migratory agents” (UNIVERSITY OF PUERTO RICO, priority 2017, dated 2022)
“And” between values parts separate entries of the source, which are not always exact repeats. Identical values can stand only once.

Assays:
[1] = test system: MDA-MB-231 and MDA-MB435 metastatic breast cancer cell lines; assay: Wound healing assay of HV-107 and HV-118; assay type: cell-based; settings: Homo sapiens, 24 h, read-out: inhibition of cell migration
Experimental: FIG. 17 (A-B). Effect of HV-107 and HV-118 on cell migration. Wounds were created on confluent monolayers of MDA-MB-231 or MDA-MB-435 human metastatic breast cancer cells. Immediately after, cells were treated for 24 h with FIG. 17A. 0, 1000, or 2000 nM of HV-107; and FIG. 17B. 0, 100, or 200 nM HV-118. The distance traveled by HV-107 and HV-118 treated cells that migrated to close the wound was quantified relative to the distance traveled by control-treated cells. N=4-7; error bars represent ±SEM; * p≤0.05.
Finally, wound healing assays were performed to assess the effects of HV-107 and HV-118 on metastatic breast cancer cell migration.

[2] = target: Rac (Homo sapiens, UniProt P63000); assay: Rac activation, pulldown with p21-binding domain of PAK / ELISA-based Rac activity assay; assay type: cell-based; design: endogenous in cells; host or cells: MDA-MB-231 and MDA-MB-435 human breast cancer cells; settings: for efficiency of Rac activation inhibition compared to lead compound Ehop-016: metastatic breast cancer cells
Experimental: FIG. 8 (A-B). Effect of HV-107 on Rac activation. FIG. 8A. MDA-MB-231 and FIG. 8B. MDA-MB-435 human breast cancer cells were treated for 24 h with 0, 100, or 250 nM HV-107. After treatment, total protein was extracted and equal amounts of proteins subjected to pulldown assays using the p21-binding domain of PAK to isolate the GTP bound (active) Rac. Samples were then western blotted for total and active Rac and positive bands quantified using image J. N=2; error bars represent ±SEM; * p≤0.05.
FIG. 10 (A-B). Effect of HV-118 on Rac activation. FIG. 10A. MDA-MB-231 and FIG. 10B. MDA-MB-435 human breast cancer cells were treated for 24 h with 0, 25, 50, or 100 nM HV-118. After treatment, total protein was extracted and equal amounts of proteins subjected to pulldown assays using the p21-binding domain of PAK to isolate the GTP bound (active) Rac. Samples were then western blotted for total and active Rac and positive bands quantified using image J. N=3-6; error bars represent ±SEM; * p≤0.05.
Additionally, the effect of replacing the aliphatic amide group at the 3-position with an aromatic ring, was also explored by synthesizing compound 7b. […] Addition of a three-carbon atom aliphatic chain linker between the pyridine ring (at the 2-position) and the morpholine group, as for 3d and 11a, results in some loss of anti-migratory activity. Moreover, the effect of 11b was tested on Rac activity, using an ELISA-based Rac activity assay and pulldowns assay.
The effects of HV-107 on the inhibition of Rac activation were tested by pulldown assays.
(§1) In FIG. 8A and FIG. 8B, human breast cancer cells MDA-MB-231 and MDA-MB-435, respectively, were treated for 24 h with 0, 250, or 500 nM HV-107. After treatment, total protein was extracted and equal amounts of proteins subjected to pulldown assays using the p21-binding domain of PAK to isolate the GTP bound (active) Rac. Samples were then western blotted for total and active Rac and positive bands quantified using image J. N=2; error bars represent ±SEM; * p≤0.05.
The effects of HV-118 on the inhibition of Rac activation were tested by pulldown assays.
as §1, with “10A” for “8A”, “10B,” for “8B,”, “25, 50,” for “250,”, “100” for “500”, “HV-118.” for “HV-107.”, “N=3-6;” for “N=2;”

[3] = test system: GFP-MDA-MB-231 cells; assay: Mammary tumor growth and metastasis in immunocompromised mice; assay type: in vivo; settings: 1 mg/kg BW i.p., Monday to Friday, approximately 2 months
Experimental: FIG. 18 (A-D). Effect of HV-118 on mammary tumor growth. Severe combined immune deficiency (SCID) mice were inoculated at the mammary fat pad with GFP-MDA-MB-231 cells and treated with 0 (Vehicle) or 1 mg/kg BW HV-118 (5× a wk). FIG. 18A. Upper panel, representative images and lower panel, average relative tumor growth on last day. FIG. 18B. Relative tumor growth as a function of days following HV-118 administration. Lungs and livers were removed at necropsy and imaged for fluorescent metastatic foci. FIG. 18C. Representative organs under fluorescence microscopy for 0 (Vehicle) and 1 mg/kg BW HV-118 treatment. FIG. 18D. […]
Preliminary data supporting HV-118 as a potent inhibitor of Rac activation in breast cancer cells was confirmed. […] Tumor growth and metastasis were assessed by fluorescent imaging. HV-118 toxicity was also determined.
An in vivo study was performed to assess HV-118 toxicity and test its effects in mammary tumor growth and metastasis. […] The effects of HV-118 on tumor growth were monitored weekly by in situ fluorescence image analysis (starting from day 1 of treatment). Mammary tumor growth was quantified using Image J software, as the pixel intensity (integrated density) determined from digital tracing of the fluorescent tumor area at each imaging session and calculated as a function of the fluorescence intensity on day one of treatment. […]

| inhibition at 0.25 µM ([2]; at 250 nM, 24 h, MDA-MB-231 and MDA-MB-435 cells) | inhibition of Rac activation ([2]; at 250 nM, 24 h, MDA-MB-231 and MDA-MB-435 cells, listed as HV-107, 0.25 µM) | Compound | inhibition at 2 µM ([1]; 2000 nM) | efficiency of Rac activation inhibition compared to lead compound Ehop-016 [2] | reduction in metastasis to lung and liver [3] | reduction in tumor growth [3] | inhibition at 0.1 µM ([1]; 100 nM) | inhibition at 0.2 µM ([1]; 200 nM) | inhibition at 0.1 µM ([2]; at 100 nM, 24 h, MDA-MB-231 and MDA-MB-435 cells) | potency relative to EHop-016 ([2]; preliminary data) |
| --- | --- | --- | --- | --- | --- | --- | --- | --- | --- | --- |
| 55% | 60% and 50% | CCn1c2ccccc2c2cc(C(=O)Nc3cccnc3N3CCOCC3)ccc21 [Compound 11b, 9-Ethyl-9H-carbazole-3-carboxylic Acid (2-morpholin-4-yl-pyridin-3-yl)-amide] | 30 to 50% | approximately 4 × |  |  |  |  |  |  |
|  |  | CCn1c2ccccc2c2cc(Nc3cc(C)nc(Cl)n3)ccc21 [HV-118, (2-Chloro-6-methyl-pyrimidin-4-yl)-(9-ethyl-9H-carbazol-3-yl)-amine] |  | approximately 10 × | > 90% | 30% | ~60% | ~80% | ~60% | up to 20 times |
